Assay results published in US5216015A, “Compounds having hypocholesterolemic properties” (priority 1991, dated 1993).
Read-outs that look alike come from different tables or passages of the source.

Legend:
[1] = tested on: HMG-CoA reductase; experiment: HMGR Screen: inhibition of HMG-CoA reductase solubilized from rat liver microsomes; assay type: biochemical
Protocol: (§1) The effectiveness of the compounds of this invention as hypocholesterolemic agents may be determined by the following pharmacologic tests which evaluate the HMG-CoA reductase inhibitory activity of said compounds. The HMGR Screen and Ex Vivo Fasted procedures are standard test procedures; the HMG-CoA reductase inhibitory results generally correlate with the HMG-CoA reductase inhibitory activity found in human patients.
Male rats were acclimated to an alternate 12 hours light-dark cycle for a period of 2-3 weeks. The animals, weighing 180-230 g, were fed ad libitum a rat chow containing 2% cholestyramine for 5 days prior to sacrifice at the mid-dark period. Liver microsomes were prepared and HMG-CoA reductase enzyme was solubilized from the microsomes by freeze-thaw manipulation in high ionic strength buffer. The enzyme preparation was stored at -80° C. in 300 μl portion samples. Prior to use, the enzyme was activated by warming at 37° C. for 30 minutes. A reaction mixture was prepared which consisted of, in a volume of 240 μl: 0.14M potassium phosphate buffer (pH 7.0); 0.18M KCl; 3.5 mM EDTA; 10 mM dithiothreitol; 0.1 mg/ml BSA; 30,000 cpm of [^14 C] HMG-CoA; 20 μM HMG-CoA, and 200 μg of activated enzyme with and without compounds of the present invention (in 10 μl DMSO). After 5 minutes incubation at 37° C. the reaction was initiated with 0.2 mM NADPH. The final assay volume was 300 μl. The reaction was then terminated with 100 μl of 1N HCl. After an additional incubation for 15 minutes at 37° C. to allow for complete lactonization of the product, the mixture was diluted with 3 ml distilled water. The diluted mixture was then poured over a 0.7×1.4 cm column containing 100-200 mesh Bio-Rex ion-exchange resin (chloride form of Bio-Rad) which was equilibrated with distilled water. With this resin the unreacted [^14 C] HMG-CoA was adsorbed and the product [^14 C] mevalonolactone was eluted (80% recovery) directly into scintillation vials. After the addition of 10 ml of Aquasol, radioactivities of the samples were measured in a scintillation counter. Results are reported as % inhibition of the enzyme in the presence of a given concentration of a compound of the present invention as compared with the activity of the enzyme in the absence of said compound, i.e., in the absence of inhibitor.

[2] = tested on: sterol synthesis; conditions: et al., cited from earlier work
[3] = tested on: HMG-CoA reductase; conditions: Brown, et al., J. Biol. Chem. 249 (22), 7306 (1974); cited from earlier work
[4] = tested on: cholesterol synthesis; experiment: Ex-Vivo Fasted: inhibition of cholesterol synthesis in liver slices after oral dosing of fasted rats; conditions: Rattus norvegicus, 1 h, p.o. (Na+ salt), livers removed after one hour
Description: as §1
Rats of 170-210 g were maintained on a low cholesterol diet for one week prior to use. Compounds of the present invention (identified in the table below) were given orally in 0.5% methocel to fasted (fasted for 16 hours) rats. After one hour the rats were decapitated and their livers removed and transferred to chilled oxygenated Kreb's-Ringer-bicarbonate buffer (pH 7.4). The livers were then chopped into 0.5 mm slices using a McIlwain tissue chopper, and were suspended in the same buffer. Aliquots of the suspension containing 100 mg tissue were pipetted to culture tubes which contained [^14 C] sodium octanoate (2 μCi, 3 mM). The tubes were gassed with 95% O2 /CO2, capped and incubated at 37° C. in a shaking water bath at 150 oscillation/min. for two hours. The final assay volume was 1.0 ml. […] After visualization with iodine the cholesterol spots were cut and counted with liquid scintillation fluid. […]

[5] = Schroepfer, et al., Proc. Natl. Acad. Sci., USA 81, 6861-6865 (1984); cited from earlier work

## CCC(C)(C)C(=O)O[C@H]1C[C@H]2C(=C3CC[C@H]([C@H](C)CC4CC(O)CC(=O)O4)[C@]31C)CC[C@@H]1C[C@H](O)CC[C@@]12C (stereo partly drawn) [Example 4, 12α-(2,2-dimethyl)butyryloxy-3α-hydroxy-17β-[3-(4(R)-hydroxy-3,4,5,6-tetrahydro-2H-pyran-2-on-6(R)-yl)-2(R)-2-propyl]-5β-androst-8(14)ene and 12α-(2,2-dimethyl)butyryloxy-3α-hydroxy-17β-[3-(4(S)-hydroxy-3,4,5,6-tetrahydro-2H-pyran-2-on-6(S)-yl)-2(R)-2-propyl]-5β-androst-8(14)-ene]
[1]; Lactone Form, at 3 μM
  HMGR Screen % Inhibition: 19%
[1]; Ring-opened/Sodium Salt, at 119 nM
  HMGR Screen % Inhibition: 50%

## CC(C)CCC[C@@H](C)[C@H]1CC[C@H]2[C@@H]3C(=O)C=C4C[C@@H](O)CC[C@]4(C)[C@H]3CC[C@]12C [7-ketocholesterol]
[2]; Kandutsch, J. Biol. Chem. 248 (24), 8408 (1974)
  inhibition of sterol synthesis: inhibit sterol synthesis
[3]
  suppression of HMG-CoA reductase activity: suppress HMG-CoA reductase activity

## CCC(C)(C)C(=O)O[C@H]1C[C@H]2[C@@H](CC[C@@H]3C[C@H](O)CC[C@@]32C)[C@@H]2CCC=C(/C=C/C3CC(O)CC(=O)O3)[C@@]12C (stereo partly drawn) [Example 1, 12α-(2,2-dimethyl)butyryloxy-3α-hydroxy-17a-[E-2-(4(R)-hydroxy-3,4,5,6-tetrahydro-2H-pyran-2-on-6(S)-yl)ethenyl]-D-homo-5β-androst-17-ene and 12α-(2,2-dimethyl)butyryloxy-3α-hydroxy-17a-[E-2-(4(S)-hydroxy-3,4,5,6-tetrahydro-2H-pyran-2-on-6(R)-yl)ethenyl]-D-homo-5β-androst-17-ene]
[1]; Lactone Form, at 5.9 μM
  HMGR Screen % Inhibition: 50%
[1]; Ring-opened/Sodium Salt, at 228 nM
  HMGR Screen % Inhibition: 50%

## CCC(C)(C)C(=O)O[C@H]1C[C@H]2[C@@H]([C@H](OC(C)=O)C[C@@H]3C[C@H](O)CC[C@@]32C)[C@@H]2CC[C@H]([C@H](C)CC3CC(O)CC(=O)O3)[C@@]12C (stereo partly drawn) [Example 3, 7α-acetoxy-12α-(2,2-dimethyl)butyryloxy-3α-hydroxy-17β-[3-(4(R)-hydroxy-3,4,5,6-tetrahydro-2H-pyran-2-on-6(R)-yl)-2(R)-2-propyl]-5β-androstane and 7α-acetoxy-12α-(2,2-dimethyl)butyryloxy-3α-hydroxy-17β-[3-(4(S)-hydroxy-3,4,5,6-tetrahydro-2H-pyran-2-on-6(S)-yl)-2(R)-2-propyl]-5β-androstane]
[1]; Lactone Form, at 30 μM
  HMGR Screen % Inhibition: 23%
[1]; Ring-opened/Sodium Salt, at 300 nM
  HMGR Screen % Inhibition: 21%

## CCC(C)(C)C(=O)O[C@H]1C[C@H]2C(=C3CC[C@H](CC[C@@H]4C[C@@H](O)CC(=O)O4)[C@]31C)CC[C@@H]1C[C@H](O)CC[C@@]12C [Example 5, 12α-(2,2-dimethyl)butyryloxy-3α-hydroxy-17β-[2-(4(R)-hydroxy-3,4,5,6-tetrahydro-2H-pyran-2-on-6(R)-yl)-ethyl]-5β-androst-8(14)-ene]
[1]; Lactone Form, at 1.6 μM
  HMGR Screen % Inhibition: 50%
[1]; Ring-opened/Sodium Salt, at 16.9 nM
  HMGR Screen % Inhibition: 50%
[4]
  inhibition at 3 mg/kg: 47%

## CCC(C)(C)C(=O)O[C@H]1C[C@H]2[C@@H](CC[C@@H]3C[C@H](O)CC[C@@]32C)[C@@H]2CC[C@H]([C@H](C)CC3CC(O)CC(=O)O3)[C@@]12C (stereo partly drawn) [Example 2, 12α-(2,2-dimethyl)butyryloxy-3α-hydroxy-17β-[3-(4(R)-hydroxy-3,4,5,6-tetrahydro-2H-pyran-2-on-6(R)-yl)-2(R)-2-propyl]-5β-androstane and 12α-(2,2-dimethyl)butyryloxy-3α-hydroxy-17β-[3-(4(S)-hydroxy-3,4,5,6-tetrahydro-2H-pyran-2-on-6(S)-yl)-2(R)-2-propyl]-5β-androstane]
[1]; Lactone Form, at 30 μM
  HMGR Screen % Inhibition: 33%
[1]; Ring-opened/Sodium Salt, at 352 nM
  HMGR Screen % Inhibition: 50%

## CC(C)CCC[C@@H](C)[C@H]1CC(=O)C2=C3CC[C@H]4C[C@@H](O)CC[C@]4(C)[C@H]3CC[C@@]21C [5α-cholest-8(14)-en-3β-ol-15-one]
[5]
  hypocholesterolemic activity: significant hypocholesterolemic acitivity
[2]; Schroepfer, J. Biol. Chem. 252 (24), 8975 (1977)
  inhibition of sterol synthesis: potent inhibitors of sterol synthesis
